Results: US4489089A, “Substituted N-[ω-(1H-imidazol-1-yl)alkyl]-amides” (American Cyanamid Company, priority 1984, dated 1984)

Assays:
[1] = biological target: T1, thromboxane synthetase (Rattus norvegicus, UniProt P49430); test: inhibition of thromboxane (TX) formation in rat platelets, TXB2 determined by radio-immunoassay (RIA); format: cell-based, Okamoto-Aoki spontaneously hypertensive rats (SHR); details: 10^-4 M; SHR washed platelets; 10 minutes at 37° C.
T1 construct: The platelets were isolated by centrifuging the PRP for 10 minutes at 1060×g; endogenous in cells; host or cells: washed platelets from arterial blood of Okamoto-Aoki spontaneously hypertensive rats (Taconic Farms)
T1 sequence (P49430 1-533): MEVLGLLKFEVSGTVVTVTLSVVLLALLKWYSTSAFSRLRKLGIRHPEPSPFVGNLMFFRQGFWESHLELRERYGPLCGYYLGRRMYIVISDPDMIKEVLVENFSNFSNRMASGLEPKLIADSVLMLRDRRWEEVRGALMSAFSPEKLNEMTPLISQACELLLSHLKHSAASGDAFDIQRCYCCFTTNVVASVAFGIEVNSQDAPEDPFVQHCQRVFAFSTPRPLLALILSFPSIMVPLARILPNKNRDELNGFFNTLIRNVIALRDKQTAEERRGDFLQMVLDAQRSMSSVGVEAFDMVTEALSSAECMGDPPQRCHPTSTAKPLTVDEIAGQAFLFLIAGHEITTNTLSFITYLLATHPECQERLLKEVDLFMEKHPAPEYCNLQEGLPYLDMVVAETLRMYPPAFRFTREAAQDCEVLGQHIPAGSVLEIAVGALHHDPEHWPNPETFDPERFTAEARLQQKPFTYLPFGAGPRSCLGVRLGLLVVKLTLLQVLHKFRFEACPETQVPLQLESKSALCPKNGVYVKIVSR
Method: Under urethan anesthesia, […]. of arterial blood was collected in one ml. of 3.2% sodium citrate in a polystyrene tube from Okamoto-Aoki spontaneously hypertensive rats (SHR) (Taconic Farms, Germantown, NY) between 19 and 24 weeks in age. The blood was diluted with 3 ml. cold saline and centrifuged at room temperature for 15 minutes at 460×g. The platelet rich plasma (PRP) was separated. The platelets were isolated by centrifuging the PRP for 10 minutes at 1060×g and were washed in 4 ml. cold oxygenated Krebs phosphate buffer, pH 7.4. The chilled platelets recovered from centrifuging at 800×g for 10 minutes were resuspended in oxygenated Krebs phosphate buffer and diluted to contain 4.5-6.0×10^4 platelts/μl.
The inhibition of thromboxane (TX) formation was studied by determing the concentration of thromboxane B2 (TXB2), the stable hydrolysis product of TXA2. Assay samples, prepared on ice, contained 200 μl. platelet suspension, 50 μl. saline, and 50 μl. vehicle or drug under study (OKY-1581, UK-37248-01, 1-benzylimidazole, or indomethacin). The samples were incubated for 10 minutes at 37° C. in a metabolic shaker. The reaction was terminated by immersing the tubes in an ice bath and adding 50 μl. of 0.5M citric acid. The samples were centrifuged for 10 minutes in a refrigerated centrifuge and the supernatants thus obtained were decanted and stored at -20° C. The TXB2 content for each sample was determined by a direct radio-immunoassay (RIA) utilizing a TXB2 specific RIA kit purchased from New England Nuclear, Boston, MA and expressed as pg TXB2 formed minute^-1 sample^-1, from which the percent inhibition of TXB2 formation was calculated. The results of this test on representative compounds of this invention appear in Table I

[2] = test system: spontaneously hypertensive rats of the Okamoto strain; test: hypotensive activity (mean arterial blood pressure) in spontaneously hypertensive rats; format: in vivo; details: 100 mg/kg or less by gavage, two doses 24 h apart; measured 28 hours after initial dose; mean of 1-3 rats; starting MABP 160±1.5 mm
Method: The novel compounds of the present invention are also active hypotensive agents and were tested for hypotensive activity by the method of P. S. Chan and D. Poorvin, Clinical and Experimental Hypertension, 1 (6), 817-830 (1979). Male, 16 week old, spontaneously hypertensive rats of the Okamoto strain, from Taconic Farms, Germantown, N.Y. having an average mean arterial blood pressure of 160±1.5 mm of mercury are used in the test. One to 3 rats are used per test compound. A rat is dosed by gavage with a test compound, suspended in 2% pre-boiled starch at a concentration of 50 mg/ml, at a dose of 100 mg/kg of body weight or less, with 0.9% sodium chloride loading at a dose 25 ml/kg of body weight. A second identical dose of the test compound, without sodium chloride loading is given 24 hours later. At 28 hours after the initial dose, the mean arterial blood pressure (MABP) is measured by the method of Chan and Poorvin vide supra. The procedure is repeated in a second and third rat when necessary. Based on the data obtained and using the three-stage "sequential probability ratio test" statistical method, the critieria for activity or retest are as follows:
If the blood pressure in the first rat is ≤116 mm mercury the compound is considered active. If the blood pressure is between […], a second rat is used. If the average blood pressure of the first and second rats is ≤122 mm the compound is considered active. If the average blood pressure is between 123 and 137 mm, a third rat is used. If the average blood pressure of the three rats is ≤128 mm the compound is considered active. The results of this test on representative compounds of the present invention appear in Table II below.

Compound	inhibition at 100 µM [1]	MABP (mean arterial blood pressure) [2]
O=C(NCCCn1ccnc1)c1cc(Br)c(Br)s1 [Example 9, 4,5-dibromo-N--[3-(1H--imidazol-1-yl)propyl]-2-thiophenecarboxamide]	100%	–
O=C(NCCCn1ccnc1)c1cc2cc(Cl)ccc2s1 [Example 11, 5-chloro-N--[3-(1H--imidazol-1-yl)propyl]benzo[b]thiophene-2-carboxamide]	100%	–
O=C(NCCCn1ccnc1)c1cc2ccccc2o1 [Example 10, N--[3-(1H--imidazol-1-yl)propyl]-2-benzofuranecarboxamide]	97%	–
O=C(NCCCn1ccnc1)c1ccc([N+](=O)[O-])o1 [Example 16]	64%	114 mm Hg
O=C(C=Cc1ccco1)NCCCn1ccnc1 [Example 14, N--[3-(1H--imidazol-1-yl)propyl]-3-(2-furanyl)-2-propenamide]	78%	–
Cc1cn(CCCNC(=O)c2sc3ccccc3c2Cl)cn1 [Example 24, 3-chloro-N--[3-(4-methyl-1H--imidazol-1-yl)propyl]benzo[b]thiophene-2-carboxamide]	98%	–
O=C(NCCCCn1ccnc1)c1sc2ccccc2c1Cl [Example 29, 3-chloro-N--[4-(1H--imidazol-1-yl)butyl]benzo[b]thiophene-2-carboxamide]	91%	–
O=C(NCCCn1ccnc1)C(=O)c1cccs1 [Example 18, N--[3-(1H--imidazol-1-yl)propyl]-α-oxo-thiophene acetamide]	73%	125 mm Hg
Cc1cn(CCCNC(=O)c2cccs2)cn1 [Example 25, N--[3-(4-methyl-1H--imidazol-1-yl)propyl]thiophene-2-carboxamide]	51%	–
Cc1ccc2c(Cl)c(C(=O)NCCCn3ccnc3)sc2c1 [Example 4, 3-chloro-N--[3-(1H--imidazol-1-yl)propyl]-6-methyl-benzo[b]thiophene-2-carboxamide]	96%	–
O=C(CCCc1cccs1)NCCCn1ccnc1 [Example 17, N--[3-(1H--imidazol-1-yl)propyl]-2-thiophenebutyramide]	–	121 mm Hg
O=C(NCCCCn1ccnc1)c1ccc(Cl)s1 [Example 30, 5-chloro-N--[4-(1H--imidazol-1-yl)butyl]thiophene-2-carboxamide]	–	118 mm Hg

Further lines, with some results ahead:

inhibition at 100 µM [1]	Compound	MABP (mean arterial blood pressure) [2]
87%	O=C(NCCCCn1ccnc1)c1ccco1 [Example 28, N-[4-(1H-Imidazol-1-yl)butyl]-2-furanecarboxamide]	–
82%	O=C(NCCCn1ccnc1)c1ccc(Br)o1 [Example 6, 5-bromo-N--[3-(1H--imidazol-1-yl)propyl]-2-furanecarboxamide]	–
96%	Cc1ccc(C(=O)NCCCn2ccnc2)s1 [Example 8, N--[3-(1H--imidazol-1-yl)propyl]-5-methyl-2-thiophenecarboxamide]	–
100%	O=C(NCCCn1ccnc1)c1sc2ccccc2c1Cl [Example 2, 3-chloro-N--[3-(1H--imidazol-1-yl)propyl]benzo[b]thiophene-2-carboxamide]	–
96%	O=C(NCCCn1ccnc1)c1sc2cc(F)ccc2c1Cl [Example 3, 3-chloro-6-fluoro-N--[3-(1H--imidazol-1-yl)propyl]benzo[b]thiophene-2-carboxamide]	–
95%	O=C(NCCCCn1ccnc1)c1cccs1 [Example 31, N--[4-(1H--imidazol-1-yl)butyl]thiophene-2-carboxamide]	114 mm Hg
100%	O=C(C=Cc1cccs1)NCCCn1ccnc1 [Example 15, N--[3-(1H--imidazol-1-yl)propyl]-3-(2-thienyl)-2-propenamide]	–
55%	CCc1nccn1CCCNC(=O)c1sc2ccccc2c1Cl [Example 22, 3-chloro-N--[3-(2-ethyl-1H--imidazol-1-yl)propyl]benzo[b]thiophene-2-carboxamide]	–
78%	O=C(NCCCn1ccnc1)c1ccoc1 [Example 5, N-[3-(1H-Imidazol-1-yl)propyl]-3-furanecarboxamide]	128 mm Hg
70%	O=C(NCCn1ccnc1)c1sc2ccccc2c1Cl [Example 20, 3-Chloro-N-[2-(1H-imidazol-1-yl)ethyl]benzo[b]thiophene-2-carboxamide]	117 mm Hg
97%	O=C(NCCCn1ccnc1)c1ccco1 [Example 1, N-[3-(1H-Imidazol-1-yl)propyl]-2-furanecarboxamide]	–
95%	O=C(NCCCn1ccnc1)c1ccc(Cl)s1 [Example 19, 5-chloro-N--[3-(1H--imidazol-1-yl)propyl]thiophene-2-carboxamide]	125 mm Hg
93%	O=C(NCCCn1ccnc1)c1cccs1 [Example 7, N--[3-(1H--imidazol-1-yl)propyl]-2-thiophenecarboxamide]	–
